Tests used:
carrageenin oedema = experiment: anti-inflammatory activity, carrageenin oedema test; assay type: in vivo; conditions: rat, oral; dose which induces 50% decrease in the volume of the oedema; read-out: Anti-inflammatory activity ID50
Protocol: (§1) The anti-inflarnmatory activity of the compounds of the Examples was evaluated by the carrageenin oedema method and the analgesic activity was evaluated by the kaolin arthritis method.
Anti-inflammatory Activity:
The anti-inflammatory activity is evaluated in the rat by the carrageenin oedema test. The product is administered orally at a rate of 2.5 ml/100 g (n=6 animals per dose) 2 h 30 min after oral hyperhydration (2.5 m/100 g); one hour after administration of the product, the oedema is induced by the plantar subcutaneous injection of 2% aqueous carrageenin solution. The results are expressed as the ID50, the dose in mg/kg which induces 50% decrease in the volume of the oedema, calculated by linear regression using the maximum oedema volume obtained for each product tested.

COX-2 = target: T1, COX-2 (Ovis aries, UniProt P79208); experiment: inhibition of COX-2 enzymatic activity (PGE2 by EIA); assay type: biochemical, ewe; conditions: for IC50: purified enzyme from ewe placenta, arachidonic acid 4 μM, n=1 to 4 determinations; for Selectivity COX-1/COX-2 ratio: ratio of IC50 COX-1 / IC50 COX-2
T1 construct: purified enzyme from ewe placenta; from tissue; host or cells: ewe placenta (purified enzyme)
T1 sequence (P79208 17-603): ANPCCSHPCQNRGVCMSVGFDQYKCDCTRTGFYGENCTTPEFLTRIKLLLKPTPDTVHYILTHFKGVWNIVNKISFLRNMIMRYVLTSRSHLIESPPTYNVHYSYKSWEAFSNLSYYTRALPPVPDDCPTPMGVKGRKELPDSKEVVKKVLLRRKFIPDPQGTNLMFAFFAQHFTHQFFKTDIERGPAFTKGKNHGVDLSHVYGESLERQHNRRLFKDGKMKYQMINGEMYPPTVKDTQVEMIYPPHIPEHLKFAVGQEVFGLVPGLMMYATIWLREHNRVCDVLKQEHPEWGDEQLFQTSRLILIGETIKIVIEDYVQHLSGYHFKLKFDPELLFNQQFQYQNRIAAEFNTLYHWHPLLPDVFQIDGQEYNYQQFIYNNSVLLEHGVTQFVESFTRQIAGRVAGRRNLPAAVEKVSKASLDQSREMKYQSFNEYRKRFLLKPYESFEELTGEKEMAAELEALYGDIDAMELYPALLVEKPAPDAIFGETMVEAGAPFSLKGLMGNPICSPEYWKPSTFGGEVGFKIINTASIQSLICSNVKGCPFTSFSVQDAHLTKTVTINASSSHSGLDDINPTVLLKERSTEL
Protocol: (§2) Inhibition of the COX-1 and COX-2 Enzymatic Activities The test molecule is preincubated for 10 minutes at 25° C. with 2 U of COX-1 (purified enzyme from ram seminal vesicles) or 1 U of COX-2 (purified enzyme from ewe placenta). Arachidonic acid (6 μM for COX-1, 4 μM for COX-2) is added to the reaction medium and incubation is carried out for 5 minutes at 25° C. When incubation has ended, the enzymatic reaction is stopped by the addition of 1 N HCl and the PGE2 produced is determined by EIA. The results are expressed as IC50, the concentration in nM which corresponds to 50% inhibition of the maximal enzymatic activity on the COX-1 and COX-2 (n=1 to 4 determinations).

kaolin arthritis = experiment: analgesic activity, kaolin arthritis test; assay type: in vivo; conditions: rat, oral; dose which induces 50% decrease of the maximum quotation in the control batch; read-out: Analgesic activity DE50
Protocol: as §1
The analgesic activity is evaluated in the rat by the kaolin arthritis test. Thirty minutes after the intra-articular administration of 10% aqueous kaolin suspension, the product is administered orally at a rate of 1 ml/100 g (n=10 animals per dose). The results are expressed as DE50, the dose in mg/kg which induces 50% decrease of the maximum quotation in the control batch, calculated by linear regression.

COX-1 = target: T2, COX-1 (Ovis aries, UniProt P05979); experiment: inhibition of COX-1 enzymatic activity (PGE2 by EIA); assay type: biochemical; conditions: purified enzyme from ram seminal vesicles; arachidonic acid 6 μM; n=1 to 4 determinations
T2 construct: purified enzyme from ram seminal vesicles; from tissue; host or cells: ram seminal vesicles (purified enzyme)
T2 sequence (P05979 25-600): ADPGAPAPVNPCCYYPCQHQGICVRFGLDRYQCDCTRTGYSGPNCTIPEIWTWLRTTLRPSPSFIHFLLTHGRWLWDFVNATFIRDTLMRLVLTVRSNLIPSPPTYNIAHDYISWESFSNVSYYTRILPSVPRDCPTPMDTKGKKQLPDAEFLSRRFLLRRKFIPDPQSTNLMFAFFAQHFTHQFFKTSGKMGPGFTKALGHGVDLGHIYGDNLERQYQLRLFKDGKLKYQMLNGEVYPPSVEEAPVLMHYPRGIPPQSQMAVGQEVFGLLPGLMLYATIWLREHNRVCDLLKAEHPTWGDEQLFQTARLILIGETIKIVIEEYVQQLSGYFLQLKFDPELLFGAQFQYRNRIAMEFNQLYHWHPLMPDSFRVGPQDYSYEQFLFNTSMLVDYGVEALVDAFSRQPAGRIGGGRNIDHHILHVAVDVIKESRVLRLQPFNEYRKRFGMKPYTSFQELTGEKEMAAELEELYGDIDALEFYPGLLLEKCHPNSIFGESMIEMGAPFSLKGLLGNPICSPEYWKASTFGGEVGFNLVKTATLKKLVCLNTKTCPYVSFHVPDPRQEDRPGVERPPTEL
Protocol: as §2

Compound	IC50 (COX-2) [nM]	Selectivity COX-1/COX-2 ratio (COX-2)	IC50 (COX-1) [nM]	ED50 (carrageenin oedema) [mg/kg]	ED50 (kaolin arthritis) [mg/kg]
CS(=O)(=O)c1ccc(/C(=C2/CCOC2=O)c2ccc(Cl)cc2)cc1 [8 (E isomer), (E)-3-[1-(4-chlorophenyl)-1-(4-methanesulphonylphenyl)methylidene]dihydrofuran-2-one]	–	–	–	> 30	–
CS(=O)(=O)c1ccc(/C(=C2\CCOC2=O)c2cccc(F)c2)cc1 [13 (Z isomer), (Z)-3-[1-(3-fluorophenyl)-1-(4-methanesulphonylphenyl)methylidene]dihydrofuran-2-one]	610	> 164	> 100000	3.9	14.1
CS(=O)(=O)c1ccc(/C(=C2\CCOC2=O)c2ccc(Cl)c(Cl)c2)cc1 [18 (Z isomer), (Z)-3-[1-(3,4-Dichlorophenyl)-1-(4-methanesulphonylphenyl)-methylidene]dihydrofuran-2-one]	132 ± 32	555	73200	> 30	6.1
CS(=O)(=O)c1ccc(/C(=C2/CCOC2=O)c2cccc(Cl)c2)cc1 [23 (E), (E)-3-[1-(3-chlorophenyl)-1-(4-methanesulphonylphenyl)methyl-idene]-dihydrofuran-2-one]	627	> 159	> 100000	–	–
CS(=O)(=O)c1ccc(/C(=C2\CCOC2=O)c2cccc(Cl)c2)cc1 [23 (Z isomer), (Z)-3-[1-(3-Chlorophenyl)-1-(4-methanesulphonylphenyl)-methylidene]dihydrofuran-2-one]	–	–	–	9.3	7.2
CS(=O)(=O)c1ccc(/C(=C2\CCOC2=O)c2ccccc2)cc1 [28 (E isomer), (E)-3-[1-Phenyl-1-(4-methanesulphonylphenyl)methylidene]-dihydrofuran-2-one]	18400	> 0.5	> 10000	10.1	26.1
CC1(C)C/C(=C(/c2ccc(F)cc2)c2ccc(S(C)(=O)=O)cc2)C(=O)O1 [31 (E isomer), (E)-5,5-Dimethyl-3-[1-(4-fluorophenyl)-1-(4-methanesulphonylphenyl)methylidene]dihydrofuran-2-one]	780	> 128	> 100000	3.1	14.2
CCC1C/C(=C(/c2ccc(F)cc2)c2ccc(S(C)(=O)=O)cc2)C(=O)O1 (stereo not drawn) [34 (E isomer), (E)-5-Ethyl-3-[1-(4-fluorophenyl)-1-(4-methanesulphonylphenyl)methylidene]dihydrofuran-2-one]	694	> 144	> 100000	–	38.8
Cc1cccc(/C(=C2/CCOC2=O)c2ccc(S(C)(=O)=O)cc2)c1 [49 (Z isomer), (Z)-3-[1-(3-Methylphenyl)-1-(4-methanesulphonylphenyl)-methylidene]dihydrofuran-2-one]	418	> 239	> 100000	> 30	> 30
CS(=O)(=O)c1ccc(/C(=C2\CCOC2=O)c2ccc(F)cc2F)cc1 [75 (Z isomer), (Z)-3-[1-(2,4-difluorophenyl)-1-(4-methanesulphonylphenyl)methylidene]-dihydro-furan-2-one]	–	–	–	4.6	–

Second part, led by results:

IC50 (COX-2) [nM]	Selectivity COX-1/COX-2 ratio (COX-2)	IC50 (COX-1) [nM]	Compound	ED50 (carrageenin oedema) [mg/kg]	ED50 (kaolin arthritis) [mg/kg]
710	> 141	> 100000	CS(=O)(=O)c1ccc(/C(=C2\CCOC2=O)c2ccc(F)c(F)c2)cc1 [54 (Z isomer), (Z)-3-[1-(3,4-Difluorophenyl)-1-(4-methanesulphonylphenyl)-methylidene]dihydrofuran-2-one]	> 30	10.8
296 ± 107	274	81000	NS(=O)(=O)c1ccc(/C(=C2\CCOC2=O)c2ccc(F)cc2)cc1 [60 (E isomer), (E)-4-[(4-fluorophenyl)-(2-oxo-dihydrofuran-3-ylidene)methyl]benzenesulphonamide]	1.7	20.9
225	> 444	> 100000	CS(=O)(=O)c1ccc(/C(=C2\CCOC2=O)c2cc(Cl)cc(Cl)c2)cc1 [70 (Z isomer), (Z)-3-[1-(3,5-dichlorophenyl)-1-(4-methanesulphonylphenyl)methylidene]-dihydro-furan-2-one]	5.5	21.5
518	> 193	> 100000	CS(=O)(=O)c1ccc(/C(=C2\CCOC2=O)c2cc(F)cc(F)c2)cc1 [80 (Z isomer), (Z)-3-[1-(3,5-difluorophenyl)-1-(4-methanesulphonylphenyl)methylidene]-dihydro-furan-2-one]	4.8	5.8
350	> 286	> 100000	Cc1ccc(/C(=C2/CCOC2=O)c2ccc(S(C)(=O)=O)cc2)cc1 [85 (E isomer), (E)-3-[1-(4-methylphenyl)-1-(4-methanesulphonylphenyl)methylidene]-dihydro-furan-2-one]	> 30	> 30
458	> 218	> 100000	CS(=O)(=O)c1ccc(/C(=C2\CCOC2=O)c2cccc(Br)c2)cc1 [90 (Z isomer), (Z)-3-[1-(3-bromophenyl)-1-(4-methanesulphonylphenyl)methylidene]-dihydro-furan-2-one]	17.2	–
205 ± 35	1510	309000 ± 27500	CS(=O)(=O)c1ccc(/C(=C2\CCOC2=O)c2ccc(F)c(Cl)c2)cc1 [95 (Z isomer), (Z)-3-[1-(3-chloro-4-fluorophenyl)-1-(4-methanesulphonylphenyl)methylidene]-dihydrofuran-2-one]	1.6	5.8
166	373	62000	CS(=O)(=O)c1ccc(/C(=C2\CCOC2=O)c2ccc(Br)cc2)cc1 [100 (Z isomer), (Z)-3-[1-(4-bromophenyl)-1-(4-methanesulphonylphenyl)methylidene]-dihydro-furan-2-one]	3.6	–
131 ± 19	349	45700	Cc1ccc(/C(=C2/CCOC2=O)c2ccc(S(N)(=O)=O)cc2)cc1F [130 (Z isomer), (Z)-4-[(3-fluoro-4-methylphenyl)-(2-oxo-dihydrofuran-3-ylidene)methyl]benzenesulphonamide]	2	2.4

From patent publication US6180651A, “Diarylmethylidenefuran derivatives, processes for their preparation and their uses in therapeutics” (Bristol-Myers Squibb, priority 1996, dated 2001)
